The text below walks through data of patent US20110054247A1, “METHODS FOR CLONING FERRETS AND TRANSGENIC FERRET MODELS FOR DISEASES” (UNIVERSITY OF IOWA RESEARCH FOUNDATION, priority 2009, published 2011).

Test [1] relates to submucosal glands of CFTR-/- tracheas. As to the kind of experiment: Functional measurement of gland secretions in tracheal xenografts. The following applies: 30 minute stimulation. The arrangement: species or system ferret. The procedure: Functional measurement of gland secretions in tracheal xenografts. Rates of mucous secretion from single submucosal glands were determined on excised CFTR^+/+, CFTR^+/−, and CFTR^−/− tracheal xenografts, as previously described in Joo et al. (2001), with modification to optimize xenograft viability. Xenografts were harvested and placed in minimal essential medium (MEM) with antibiotics, and shipped overnight at 4° C. from the University of Iowa to Stanford University. Tracheal xenografts were open along the posterior trachealis muscle, and dissected tracheal segments were mounted mucosal-side-up in a chamber without removing the cartilage at 4° C. […] Digital images of the spherical mucous bubbles under mineral oil were obtained at 5 minute intervals, based on which the secretory rates for individual glands was calculated using ImageJ software (NIH, MD). […] To confirm that differences in glandular secretory rates between CF and non-CF xenografts were not due to differences in gland size, we performed morphometric analysis on the samples analyzed. […] The unit length of the surface airway basal lamina and the glandular area were measured for each section using Metamorph software. […] On average about 75 photomicrographs were evaluated for each xenograft sample (N=5 for non-CF and N=6 for CF).

Test [2] deals with CFTR-/- kits. As to the kind of experiment: Oral UDCA therapy of CFTR-/- kits (neonatal clinical care, blood chemistries). The test is classed as in vivo, ferret. The following applies: Golytely and antibiotics. The procedure:
Neonatal clinical care of CFTR^−/− kits. Two treatment protocols were developed to enhance post-natal survival and reduce the risk of intestinal obstruction caused by MI. Both protocols included administering metronidazole (5 mg/kg in 100 uL of dextrose saline, s.c.) 4× daily beginning at the time of birth, and starving the animals for the first 3 hours after birth and then administering a 150-200 μL Golytely® gavage (Braintree Laboratories Inc.) using a fire polished microloader pipette tip (Eppendorf Inc.) (FIG. 27 for example of gavage tube components). The gavage was repeated every 6 hours up to three times, until meconium was passed. […] When CFTR^−/− kits were weaned at 5 weeks of age, they were fed a slurry of Elecare hydrated solid chow (Marshall Farms) 2× daily, mixed with 1 lipase Unit per 10 gram body weight of Viokase-V (the amount of food eaten with each feeding was recorded for these calculations).
Blood chemistries. […] Mammalian Liver Profile rotors from Abaxis were used, and assessed plasma levels of: alkaline phosphatase (AP), alanine aminotransferase (ALT), bile acids (BA), total bilirubin (TBiI), total cholesterol (CHOL), gamma glutamyl transferase (GGT), and blood urea nitrogen (BUN). […]
For these reasons, it was determined whether oral UDCA therapy of CFTR^−/− kits might normalize liver function and improve nutrition. […]

Molecules are shown by their SMILES.

Consider `C=C[C@@]1(C)CC(=O)[C@]2(O)[C@@]3(C)[C@@H](O)CCC(C)(C)[C@@H]3[C@H](O)[C@H](OC(C)=O)[C@@]2(C)O1` [forskolin], for which the “reduction of fluid secretion from submucosal glands, CFTR-/- versus non-CF tracheas” value in test [1] (secretion in response to 3 μM forskolin) is on record as 7.4 fold. Consider `C[C@H](CCC(=O)O)[C@H]1CC[C@H]2[C@@H]3[C@@H](O)C[C@@H]4C[C@H](O)CC[C@]4(C)[C@H]3CC[C@]12C` [UDCA, ursodeoxycholic acid], for which the “survival of CFTR-/- kits that did not die of MI” value in test [2] (4 of 20 CFTR-/- kits treated with UDCA) was 5 to 9 days. The “number of kits that died of MI” value in test [2] (among 20 CFTR-/- kits treated with UDCA) is listed as 16.

As to `C[N+](C)(C)CCOC(N)=O` [carbachol], the “reduction of fluid secretion from submucosal glands, CFTR-/- versus non-CF tracheas” value in test [1] (secretion in response to 1 μM carbachol) is reported as “reduced by half”.
